Experimental data from patent publication EP4748841A1, “BICYCLO[5,6] IMIDAZOLE PYRIMIDONE DERIVATIVE AND PREPARATION METHOD THEREFOR AND USE THEREOF” (Shujing Biopharma Co., Ltd, priority 2023, dated 2025).

Experiments:
Assay type in all cases: in vitro ADME
[1] = Liver microsome stability experiment (human); details: for CLint scaled at 1 µM: human, liver microsomes, pH 7.4, Human liver microsomes
Procedure: (§1) This experiment aimed to evaluate the phase I metabolic stability of the compounds of the present disclosure in liver microsomes of SD rats, beagle dogs, cynomolgus monkeys, and humans.
(§2) • (1) Buffer preparation: 73.21 g of dipotassium hydrogen phosphate trihydrate and 10.78 g of potassium dihydrogen phosphate were dissolved in 4000 mL of ultrapure water. The pH of the solution was adjusted to within 7.40 ± 0.10 using 10% phosphoric acid or 1 M potassium hydroxide, resulting in a final concentration of 100 mM. • (2) Solution preparation and dilution: Stock solutions of the test compounds at a concentration of 10 mM were prepared in dimethyl sulfoxide (DMSO) and stored at 4 °C, and they were diluted into 100 µM working solutions with pure acetonitrile when used. A stock solution of the control compound testosterone at a concentration of 10 mM was prepared in DMSO and stored at -20 °C, and it was diluted into a 400 µM working solution with pure acetonitrile when used. • (3) Termination solution preparation: The termination solution was an acetonitrile solution containing an internal standard (terfenadine). The prepared termination solution was stored in a refrigerator at 2-8 °C. • (4) Liver microsome solution preparation: Liver microsomes from various species (SD rat, beagle dog, cynomolgus monkey, and human) were diluted into 20× working solutions using 100 mM potassium phosphate buffer. The final concentration of the liver microsomes in the reaction system was 0.5 mg/mL. • (5) Reduced nicotinamide adenine dinucleotide phosphate (NADPH) regeneration system preparation: Appropriate amounts of nicotinamide adenine dinucleotide phosphate (NADP), glucose-6-phosphate (G6P), magnesium chloride (MgCl2), and glucose-6-phosphate dehydrogenase (G6PDH) were weighed to prepare stock solutions at concentrations of 65.33 mM, 330 mM, 300 mM, and 250 Units/mL, respectively. The four stock solutions described above were each added to an appropriate amount of buffer, and the mixture was mixed well by gently inverting up and down. The final concentrations of NADP, G6P, MgCl2, and G6PDH in the NADPH regeneration system were 2.65 mM, 10.2 mM, 6.12 mM, and 2.45 Units/mL, respectively. • (6) Incubation process: The incubation was completed in 96-well plates. Several incubation plates were prepared and named T0, T5, T10, T20, T40, T60, and NCF60, respectively. The first 6 plates corresponded to reaction time points of 0 min, 5 min, 10 min, 20 min, 40 min, and 60 min, respectively. The NCF60 plate was incubated for 60 min with potassium phosphate buffer replacing the NADPH regeneration system solution. Samples under all conditions were prepared in triplicate.
(§3) 2 µL of the test compound or control compound and 100 µL of microsome working solution (containing 1 mg/mL liver microsome protein) were added to each of the T0, T5, T10, T20, T40, T60, and NCF60 plates, and only the microsome working solution was added to the Blank 60 plate. The plates described above were then pre-incubated in a 37 °C water bath for about 10 min.
(§4) After the pre-incubation was completed, 98 µL of the NADPH regeneration system working solution was added to each sample well except for the NCF60 plate and the T0 plate to initiate the reaction, and 98 µL of potassium phosphate buffer was added to each well of the NCF60 plate. Therefore, for the sample wells containing the test sample or control substance working solution, the final concentrations of TC and testosterone in the reaction were 1 µM and 4 µM, respectively, the concentration of liver microsomes was 0.5 mg/mL, and the final concentrations of DMSO and acetonitrile in the reaction system were 0.01% (v/v) and 0.99% (v/v), respectively.
(§5) After incubation for an appropriate time (e.g., 5 min, 10 min, 20 min, 40 min, and 60 min), 600 µL of a termination solution (an acetonitrile solution containing 100 ng/mL […]) was added to each test compound sample well and control compound sample well to terminate the reaction. […]

[2] = Liver microsome stability experiment (cynomolgus monkey); details: pH 7.4, Cynomolgus monkey liver microsomes, 0.5 mg/mL; for CLint scaled at 1 µM: cynomolgus monkey, liver microsomes
Procedure: as §1, §2, §3, §4, §5

[3] = Liver microsome stability experiment (beagle dog); details: for CLint scaled at 1 µM: beagle, dog, liver microsomes, pH 7.4, Beagle dog liver microsomes
Procedure: as §1, §2, §3, §4, §5

[4] = Liver microsome stability experiment (SD rat); details: for CLint scaled at 1 µM: SD, rat, liver microsomes, pH 7.4, SD rat liver microsomes
Procedure: as §1, §2, §3, §4, §5

[5] = 0.5 mg/mL, 1 µM, read-out: CL(liver)
[6] = 0.5 mg/mL, 1 µM, read-out: CLint(liver)
[7] = read-out: Clearance rate classification

COCCN1CCC(N(Cc2ccc(-c3ccc(C(F)(F)F)cc3)cc2)C(=O)Cn2c(SCc3cccc(F)c3F)cc(=O)c3ccccc32)CC1 [Rilapladib]
CLint scaled at 1 µM [1, 5]: 15.4 mL/min/kg
CLint scaled at 1 µM [1, 6]: 60.3 mL/min/kg
CLint scaled at 1 µM [1, 7]: > 48.3 mL/min/kg
half-life at 1 µM ([1]; pH 7.4, Human liver microsomes, 0.5 mg/mL, 1 µM): 20.7 min
CLint scaled at 1 µM ([2]; read-out: CL(liver)): 39.8 mL/min/kg
CLint scaled at 1 µM ([2]; read-out: CLint(liver)): 461 mL/min/kg
half-life at 1 µM [2]: 4.06 min
CLint scaled at 1 µM [3, 5]: 8.8 mL/min/kg
CLint scaled at 1 µM [3, 6]: 12.4 mL/min/kg
CLint scaled at 1 µM [3, 7]: ≤ 13.2 mL/min/kg
half-life at 1 µM ([3]; pH 7.4, Beagle dog liver microsomes, 0.5 mg/mL, 1 µM): 162 min
CLint scaled at 1 µM [4, 5]: < 10.8 mL/min/kg
CLint scaled at 1 µM [4, 6]: < 13.4 mL/min/kg
CLint scaled at 1 µM [4, 7]: ≤ 23.7 mL/min/kg
half-life at 1 µM ([4]; pH 7.4, SD rat liver microsomes, 0.5 mg/mL, 1 µM): > 186 min
